Assay results reported in US9415053B2, “Solid, orally administrable pharmaceutical composition” (Bayer Intellectual Property GmbH, priority 2003, dated 2016).
In brackets after ≈: the same amount, converted by molar mass.

Assay: Solubility of active compound (I)
Type: physicochemical
Protocol: The active compound (I) has a relatively poor water solubility (about 7 mg/l). As a result of this, difficulties with the oral bioavailability and an increased biological variability of the absorption rate can result.
An alternative process is the amorphization of the active compound. […] Amorphization of the active compound by means of the fusion method is also disadvantageous because of the high melting point of the active compound (about 230° C.), since an undesirably high proportion of breakdown components is formed during the preparation.

solubility in pharmaceutically acceptable solvents (solvents such as ethanol or acetone): poorly soluble
solubility (water): ~7 µg/mL (≈ 16.1 µM)
SMILES: O=C(NC[C@H]1CN(c2ccc(N3CCOCC3=O)cc2)C(=O)O1)c1ccc(Cl)s1 [active compound (I), 5-chloro-N-({(5S)-2-oxo-3-[4-(3-oxo-4-morpholinyl)-phenyl]-1,3-oxazolidin-5-yl}-methyl)-2-thiophenecarboxamide]
